Legend:
Format in all cases: in vivo
[1] = test system: Cyperus difformis; assay: Test Example 3: herbicidal effect by foliage application, Wagner pot (symbol E); conditions: application herbicide amount 320 g/ha; for E herbicidal effect grade: Table 24
Outline: (§1)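 Herbicidal activity was rated three weeks after a foliar spray of diluted emulsion concentrate, applied at a predetermined dose to plants grown for 14 days from seed in waterlogged alluvial soil within a 25–30 °C greenhouse.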

[2] = test system: corn; assay: Test Example 4: effect on crop by soil treatment (symbol c); conditions: for c: corn, effect grade on crop: 320 g/ha; for Effect on crop grade, c: corn: application herbicide amount 320 g/ha
Outline: (§2)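 Diluvial soil (sterilized) in boxes; seeds placed spot-wise alongside weed species; ~1.5 cm covering soil. Greenhouse, 25–30° C.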

[3] = test system: Galium spurium; assay: Test Example 5: herbicidal effect by foliage application, plastic box (symbol Q); conditions: 320 g/ha, 3 weeks after application
Outline: (§3)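 Leaf-applied emulsion, water-diluted to a preset herbicide dose, on two-week-old seedlings raised in a 25° C. to 30° C. greenhouse; injury rated at 3 weeks using earlier criteria.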

[4] = test system: beet; assay: Test Example 4: effect on crop by soil treatment (symbol f); conditions: for f: beet, effect grade on crop: 320 g/ha; for Effect on crop grade, f: beet: application herbicide amount 320 g/ha
Outline: as §2

[5] = test system: Leptochloa chinensis; assay: Test Example 3: herbicidal effect by foliage application, Wagner pot (symbol D); conditions: application herbicide amount 320 g/ha; for D (Leptochloa chinensis) herbicidal effect grade: Table 24
Outline: as §1

[6] = test system: Echinochloa oryzacola Vasing.; assay: Test Example 2: herbicidal activity, application during weed generation in submerged conditions (symbol A); conditions: Table 23; application herbicide amount 320 g/ha; grade 0-5 by criteria of Test Example 1
Outline: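 Visual herbicidal ratings, taken three weeks after dosing, reflect post-emergence water-surface application to seedlings at one to two leaves. Conditions: co-sown weeds in alluvial soil flooded to 4 cm, greenhouse held at 25° C. to 30° C.; compound given as water-diluted emulsion at a fixed herbicide amount.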

[7] = test system: Amaranthus retroflexus; assay: Test Example 4: herbicidal effect by soil treatment (symbol N); conditions: for N: Amaranthus retroflexus, herbicidal effect grade: 320 g/ha; for Herbicidal effect grade, N: Amaranthus retroflexus: application herbicide amount 320 g/ha
Outline: (§4)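 Seeds were sown in sterilized diluvial soil, covered with about 1.5 cm of soil, and the soil surface was sprayed with a water-diluted emulsion of the compound at a predetermined rate. Plants grew in a greenhouse at 25° C. to 30° C.; effects were scored visually 3 weeks after application.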

[8] = test system: soybean; assay: Test Example 4: effect on crop by soil treatment (symbol d); conditions: for d: soybean, effect grade on crop: 320 g/ha; for Effect on crop grade, d: soybean: application herbicide amount 320 g/ha
Outline: as §2

[9] = test system: Monochoria vaginalis; assay: Test Example 1: herbicidal activity, application before weed generation in submerged conditions (symbol C); conditions: application herbicide amount 320 g/ha
Outline: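 In a flooded pot test with alluvial soil, the emulsion-formulated compound was diluted with water to a predetermined amount and applied to the floodwater immediately on the sowing day. Pots were held in a greenhouse at 25–30 °C for 3 weeks before each weed was rated.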

[10] = test system: Digitaria ciliaris; assay: Test Example 4: herbicidal effect by soil treatment (symbol F); conditions: for F: Digitaria ciliaris, herbicidal effect grade: 320 g/ha; for Herbicidal effect grade, F: Digitaria ciliaris: application herbicide amount 320 g/ha
Outline: as §4

[11] = test system: Lolium multiflorum Lam.; assay: Test Example 5: herbicidal effect by foliage application, plastic box (symbol K); conditions: 320 g/ha, 3 weeks after application
Outline: as §3

[12] = test system: Abutilon theophrasti; assay: Test Example 4: herbicidal effect by soil treatment (symbol M); conditions: for M: Abutilon theophrasti, herbicidal effect grade: 320 g/ha; for Herbicidal effect grade, M: Abutilon theophrasti: application herbicide amount 320 g/ha
Outline: as §4

Compound: CON=C(C)CC1CC(OC(=O)C2=CCCC2)=C(c2c(C)cc(C)cc2C)C1=O (stereo not drawn) [1-088]
- herbicidal effect on E, grade 0-5 [1]: 5 (Herbicidal ratio of 90% or more (almost completely withered))
- c: corn, effect grade on crop [2]: 4 (Herbicidal ratio of 70% or higher and lower than 90%)
- Q: Galium spurium, herbicidal effect (criteria 0-5) [3]: 0 (Herbicidal ratio of 5% or lower (almost no effect))
- f: beet, effect grade on crop [4]: 0 (Herbicidal ratio of 5% or lower (almost no effect))
- herbicidal effect on D (Leptochloa chinensis), grade 0-5 [5]: 5 (Herbicidal ratio of 90% or more (almost completely withered))
- Herbicidal effect grade, A: Echinochloa oryzacola Vasing. [6]: 5 (Herbicidal ratio of 90% or more (almost completely withered))
- N: Amaranthus retroflexus, herbicidal effect grade [7]: 1 (Herbicidal ratio of 5% or higher and lower than 20%)
- d: soybean, effect grade on crop [8]: 0 (Herbicidal ratio of 5% or lower (almost no effect))
- Herbicidal effect grade, C: Monochoria vaginalis [9]: 0 (Herbicidal ratio of 5% or lower (almost no effect))
- F: Digitaria ciliaris, herbicidal effect grade [10]: 5 (Herbicidal ratio of 90% or more (almost completely withered))
- K: Lolium multiflorum Lam., herbicidal effect (criteria 0-5) [11]: 5 (Herbicidal ratio of 90% or more (almost completely withered))
- M: Abutilon theophrasti, herbicidal effect grade [12]: 0 (Herbicidal ratio of 5% or lower (almost no effect))

Compound: CON=C(C)CC1CC(OC(=O)C2=C(Br)CCC2)=C(c2c(C)cc(C)cc2C)C1=O (stereo not drawn) [1-089]
- herbicidal effect on E, grade 0-5 [1]: 5 (Herbicidal ratio of 90% or more (almost completely withered))
- c: corn, effect grade on crop [2]: 5 (Herbicidal ratio of 90% or more (almost completely withered))
- Q: Galium spurium, herbicidal effect (criteria 0-5) [3]: 0 (Herbicidal ratio of 5% or lower (almost no effect))
- f: beet, effect grade on crop [4]: 0 (Herbicidal ratio of 5% or lower (almost no effect))
- herbicidal effect on D (Leptochloa chinensis), grade 0-5 [5]: 5 (Herbicidal ratio of 90% or more (almost completely withered))
- Herbicidal effect grade, A: Echinochloa oryzacola Vasing. [6]: 5 (Herbicidal ratio of 90% or more (almost completely withered))
- N: Amaranthus retroflexus, herbicidal effect grade [7]: 3 (Herbicidal ratio of 40% or higher and lower than 70%)
- d: soybean, effect grade on crop [8]: 0 (Herbicidal ratio of 5% or lower (almost no effect))
- Herbicidal effect grade, C: Monochoria vaginalis [9]: 3 (Herbicidal ratio of 40% or higher and lower than 70%)
- F: Digitaria ciliaris, herbicidal effect grade [10]: 5 (Herbicidal ratio of 90% or more (almost completely withered))
- K: Lolium multiflorum Lam., herbicidal effect (criteria 0-5) [11]: 5 (Herbicidal ratio of 90% or more (almost completely withered))
- M: Abutilon theophrasti, herbicidal effect grade [12]: 2 (Herbicidal ratio of 20% or higher and lower than 40%)

Compound: CCCC=CC(=O)OC1=C(c2c(C)cc(C)cc2C)C(=O)C(CC(C)=NOC)C1 (stereo not drawn) [1-090]
- herbicidal effect on E, grade 0-5 [1]: 5 (Herbicidal ratio of 90% or more (almost completely withered))
- c: corn, effect grade on crop [2]: 3 (Herbicidal ratio of 40% or higher and lower than 70%)
- Q: Galium spurium, herbicidal effect (criteria 0-5) [3]: 0 (Herbicidal ratio of 5% or lower (almost no effect))
- f: beet, effect grade on crop [4]: 0 (Herbicidal ratio of 5% or lower (almost no effect))
- herbicidal effect on D (Leptochloa chinensis), grade 0-5 [5]: 5 (Herbicidal ratio of 90% or more (almost completely withered))
- Herbicidal effect grade, A: Echinochloa oryzacola Vasing. [6]: 5 (Herbicidal ratio of 90% or more (almost completely withered))
- N: Amaranthus retroflexus, herbicidal effect grade [7]: 0 (Herbicidal ratio of 5% or lower (almost no effect))
- d: soybean, effect grade on crop [8]: 0 (Herbicidal ratio of 5% or lower (almost no effect))
- Herbicidal effect grade, C: Monochoria vaginalis [9]: 1 (Herbicidal ratio of 5% or higher and lower than 20%)
- F: Digitaria ciliaris, herbicidal effect grade [10]: 5 (Herbicidal ratio of 90% or more (almost completely withered))
- K: Lolium multiflorum Lam., herbicidal effect (criteria 0-5) [11]: 5 (Herbicidal ratio of 90% or more (almost completely withered))
- M: Abutilon theophrasti, herbicidal effect grade [12]: 4 (Herbicidal ratio of 70% or higher and lower than 90%)

Compound: COCC(=O)OC1=C(c2c(C)cc(C)cc2C)C(=O)C(CC(C)=NOC)C1 (stereo not drawn) [1-093]
- herbicidal effect on E, grade 0-5 [1]: 5 (Herbicidal ratio of 90% or more (almost completely withered))
- c: corn, effect grade on crop [2]: 5 (Herbicidal ratio of 90% or more (almost completely withered))
- Q: Galium spurium, herbicidal effect (criteria 0-5) [3]: 0 (Herbicidal ratio of 5% or lower (almost no effect))
- f: beet, effect grade on crop [4]: 0 (Herbicidal ratio of 5% or lower (almost no effect))
- herbicidal effect on D (Leptochloa chinensis), grade 0-5 [5]: 5 (Herbicidal ratio of 90% or more (almost completely withered))
- Herbicidal effect grade, A: Echinochloa oryzacola Vasing. [6]: 5 (Herbicidal ratio of 90% or more (almost completely withered))
- N: Amaranthus retroflexus, herbicidal effect grade [7]: 3 (Herbicidal ratio of 40% or higher and lower than 70%)
- d: soybean, effect grade on crop [8]: 0 (Herbicidal ratio of 5% or lower (almost no effect))
- Herbicidal effect grade, C: Monochoria vaginalis [9]: 2 (Herbicidal ratio of 20% or higher and lower than 40%)
- F: Digitaria ciliaris, herbicidal effect grade [10]: 5 (Herbicidal ratio of 90% or more (almost completely withered))
- K: Lolium multiflorum Lam., herbicidal effect (criteria 0-5) [11]: 5 (Herbicidal ratio of 90% or more (almost completely withered))
- M: Abutilon theophrasti, herbicidal effect grade [12]: 4 (Herbicidal ratio of 70% or higher and lower than 90%)

Compound: CON=C(C)CC1CC(OC(=O)COCc2ccccc2)=C(c2c(C)cc(C)cc2C)C1=O (stereo not drawn) [1-094]
- herbicidal effect on E, grade 0-5 [1]: 4 (Herbicidal ratio of 70% or higher and lower than 90%)
- c: corn, effect grade on crop [2]: 4 (Herbicidal ratio of 70% or higher and lower than 90%)
- Q: Galium spurium, herbicidal effect (criteria 0-5) [3]: 0 (Herbicidal ratio of 5% or lower (almost no effect))
- f: beet, effect grade on crop [4]: 0 (Herbicidal ratio of 5% or lower (almost no effect))
- herbicidal effect on D (Leptochloa chinensis), grade 0-5 [5]: 5 (Herbicidal ratio of 90% or more (almost completely withered))
- Herbicidal effect grade, A: Echinochloa oryzacola Vasing. [6]: 5 (Herbicidal ratio of 90% or more (almost completely withered))
- N: Amaranthus retroflexus, herbicidal effect grade [7]: 4 (Herbicidal ratio of 70% or higher and lower than 90%)
- d: soybean, effect grade on crop [8]: 1 (Herbicidal ratio of 5% or higher and lower than 20%)
- Herbicidal effect grade, C: Monochoria vaginalis [9]: 1 (Herbicidal ratio of 5% or higher and lower than 20%)
- F: Digitaria ciliaris, herbicidal effect grade [10]: 5 (Herbicidal ratio of 90% or more (almost completely withered))
- K: Lolium multiflorum Lam., herbicidal effect (criteria 0-5) [11]: 5 (Herbicidal ratio of 90% or more (almost completely withered))
- M: Abutilon theophrasti, herbicidal effect grade [12]: 2 (Herbicidal ratio of 20% or higher and lower than 40%)

Compound: CC#Cc1cc(C)c(C2=C(OC(=O)COc3ccccc3)CC(CC(=NOC)C(C)C)C2=O)c(C)c1 (stereo not drawn) [9-003]
- E herbicidal effect grade [1]: 5 (Herbicidal ratio of 90% or more (almost completely withered))
- Effect on crop grade, c: corn [2]: 5 (Herbicidal ratio of 90% or more (almost completely withered))
- Q: Galium spurium, herbicidal effect grade [3]: 0 (Herbicidal ratio of 5% or lower (almost no effect))
- Effect on crop grade, f: beet [4]: 0 (Herbicidal ratio of 5% or lower (almost no effect))
- D (Leptochloa chinensis) herbicidal effect grade [5]: 5 (Herbicidal ratio of 90% or more (almost completely withered))
- Herbicidal effect grade, A: Echinochloa oryzacola Vasing. [6]: 5 (Herbicidal ratio of 90% or more (almost completely withered))
- Herbicidal effect grade, N: Amaranthus retroflexus [7]: 0 (Herbicidal ratio of 5% or lower (almost no effect))
- Effect on crop grade, d: soybean [8]: 0 (Herbicidal ratio of 5% or lower (almost no effect))
- Herbicidal effect grade, C: Monochoria vaginalis [9]: 1 (Herbicidal ratio of 5% or higher and lower than 20%)
- Herbicidal effect grade, F: Digitaria ciliaris [10]: 5 (Herbicidal ratio of 90% or more (almost completely withered))
- K: Lolium multiflorum Lam., herbicidal effect grade [11]: 5 (Herbicidal ratio of 90% or more (almost completely withered))
- Herbicidal effect grade, M: Abutilon theophrasti [12]: 0 (Herbicidal ratio of 5% or lower (almost no effect))

Compound: CON=C(CC1CC(O)=C(c2c(C)cc(C#C[Si](C)(C)C)cc2C)C1=O)C(C)C (stereo not drawn) [9-005]
- E herbicidal effect grade [1]: 2 (Herbicidal ratio of 20% or higher and lower than 40%)
- Effect on crop grade, c: corn [2]: 0 (Herbicidal ratio of 5% or lower (almost no effect))
- Q: Galium spurium, herbicidal effect grade [3]: 0 (Herbicidal ratio of 5% or lower (almost no effect))
- Effect on crop grade, f: beet [4]: 0 (Herbicidal ratio of 5% or lower (almost no effect))
- D (Leptochloa chinensis) herbicidal effect grade [5]: 5 (Herbicidal ratio of 90% or more (almost completely withered))
- Herbicidal effect grade, A: Echinochloa oryzacola Vasing. [6]: 3 (Herbicidal ratio of 40% or higher and lower than 70%)
- Herbicidal effect grade, N: Amaranthus retroflexus [7]: 0 (Herbicidal ratio of 5% or lower (almost no effect))
- Effect on crop grade, d: soybean [8]: 0 (Herbicidal ratio of 5% or lower (almost no effect))
- Herbicidal effect grade, C: Monochoria vaginalis [9]: 0 (Herbicidal ratio of 5% or lower (almost no effect))
- Herbicidal effect grade, F: Digitaria ciliaris [10]: 1 (Herbicidal ratio of 5% or higher and lower than 20%)
- K: Lolium multiflorum Lam., herbicidal effect grade [11]: 5 (Herbicidal ratio of 90% or more (almost completely withered))
- Herbicidal effect grade, M: Abutilon theophrasti [12]: 0 (Herbicidal ratio of 5% or lower (almost no effect))

From patent US11000033B2, “Ketone or oxime compound, and herbicide” (NISSAN CHEMICAL CORPORATION, priority 2014, dated 2021)
